{"source": "paper PMC3894633", "about": "(Biochemistry, 2013)", "key": {"[1]": {"tested_on": "M. tuberculosis ΔpanCDΔlysA", "format": "cell-based", "conditions": "for Growth inhibition of M. tuberculosis ΔpanCDΔlysA: 7 days in culture, tested up to 100 μM, inhibition only at 100 μM"}, "M. tuberculosis H37Rv": {"tested_on": "M. tuberculosis H37Rv", "experiment": "Metabolic profiling of Mtb intracellular metabolites", "format": "cell-based, Mycobacterium tuberculosis", "conditions": "Mtb exposed to 75 μM"}, "human Lpd (hLpd)": {"target": "T1, human Lpd (hLpd) (Homo sapiens, UniProt P09622)", "T1 sequence (P09622 36-509)": "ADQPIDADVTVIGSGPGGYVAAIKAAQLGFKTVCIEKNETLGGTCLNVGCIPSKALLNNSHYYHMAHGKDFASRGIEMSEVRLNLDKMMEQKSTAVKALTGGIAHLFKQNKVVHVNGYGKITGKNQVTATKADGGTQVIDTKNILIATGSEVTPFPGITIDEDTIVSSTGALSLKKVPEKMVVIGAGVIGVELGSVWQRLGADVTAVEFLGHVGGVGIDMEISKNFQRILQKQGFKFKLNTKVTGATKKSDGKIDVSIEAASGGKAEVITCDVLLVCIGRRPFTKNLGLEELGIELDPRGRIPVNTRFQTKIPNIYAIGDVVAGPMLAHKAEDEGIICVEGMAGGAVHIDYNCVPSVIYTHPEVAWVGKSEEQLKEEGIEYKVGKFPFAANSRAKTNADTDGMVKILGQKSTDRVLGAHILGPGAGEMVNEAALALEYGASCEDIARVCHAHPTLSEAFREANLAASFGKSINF", "experiment": "Human Lpd inhibition, DTNB assay with 10 μM lipoamide", "format": "biochemical", "conditions": "highest concentration tested 100 μM"}, "M. bovis BCG": {"tested_on": "M. bovis BCG", "format": "cell-based"}, "Mtb": {"tested_on": "Mtb", "conditions": "ref [20]; cited from earlier work"}, "mycobacterial Lpd (mLpd)": {"target": "T2, mycobacterial Lpd (mLpd) (Mycobacterium tuberculosis, UniProt P9WHH9)", "T2 sequence (P9WHH9 1-464)": "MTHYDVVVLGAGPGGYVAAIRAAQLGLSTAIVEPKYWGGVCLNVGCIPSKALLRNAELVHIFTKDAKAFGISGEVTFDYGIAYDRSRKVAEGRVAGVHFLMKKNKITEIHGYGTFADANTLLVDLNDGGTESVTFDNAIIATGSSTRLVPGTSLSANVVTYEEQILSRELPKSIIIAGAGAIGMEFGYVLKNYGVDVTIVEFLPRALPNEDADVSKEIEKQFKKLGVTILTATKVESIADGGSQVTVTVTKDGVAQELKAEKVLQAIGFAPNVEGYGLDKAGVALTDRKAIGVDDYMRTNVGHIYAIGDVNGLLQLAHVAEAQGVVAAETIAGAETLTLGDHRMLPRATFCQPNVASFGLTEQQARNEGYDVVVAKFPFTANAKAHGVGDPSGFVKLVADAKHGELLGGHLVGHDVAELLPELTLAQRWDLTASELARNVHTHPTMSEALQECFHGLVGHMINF", "format": "biochemical"}}, "note": "Like-named read-outs stand apart in the source and are kept apart here."}
{"smiles": "COc1ccc(NC(=O)CN(C)S(=O)(=O)c2cc(Br)cnc2N)cc1", "note": "[SL827, 2-(2-amino-5-bromo-N-methylpyridine-3-sulfonamido)-N-(4-methoxyphenyl)acetamide]", "values": [{"measurement": "Growth inhibition of M. tuberculosis ΔpanCDΔlysA", "setting": "[1]", "result": "No growth inhibition"}, {"measurement": "Changes in alanine, valine and leucine levels", "setting": "M. tuberculosis H37Rv", "result": "no changes"}, {"measurement": "Inhibition of hLpd", "setting": "human Lpd (hLpd)", "result": "did not inhibit"}, {"measurement": "Growth inhibition of M. bovis BCG", "setting": "M. bovis BCG", "result": "No growth inhibition"}]}
{"smiles": "Cc1cc(NS(=O)(=O)c2ccc(N)cc2)no1", "note": "[Sulfamethoxazole]", "values": [{"measurement": "Growth inhibitory effect on Mtb", "setting": "Mtb", "result": "little or no growth inhibitory effect"}]}
{"smiles": "CCN(Cc1ccccc1)C(=O)CN(C)S(=O)(=O)c1cc(Br)cnc1N", "note": "[E114-0951]", "values": [{"measurement": "Loss of potency", "setting": "mycobacterial Lpd (mLpd)", "result": 100, "unit": "fold"}]}
{"smiles": "COC(=O)[C@H]1[C@H]2C[C@@H]3c4[nH]c5cc(OC)ccc5c4CCN3C[C@H]2C[C@@H](OC(=O)c2cc(OC)c(OC)c(OC)c2)[C@@H]1OC", "note": "[reserpine, reference compound]", "values": [{"measurement": "Growth inhibitory effect on Mtb on its own", "setting": "[1]; 25 μM", "result": "no growth inhibitory effect"}]}
{"smiles": "CN(CC(=O)Nc1ccc(F)c(Cl)c1)S(=O)(=O)c1cc(Br)cnc1N", "note": "[SL418]", "values": [{"measurement": "Growth inhibition of M. tuberculosis ΔpanCDΔlysA", "setting": "[1]", "result": "No growth inhibition"}, {"measurement": "Inhibition of hLpd", "setting": "human Lpd (hLpd)", "result": "did not inhibit"}, {"measurement": "Growth inhibition of M. bovis BCG", "setting": "M. bovis BCG; 7 days in culture, tested up to 100 μM, inhibition only at 100 μM", "result": "No growth inhibition"}]}
{"smiles": "Nc1ncc(Br)cc1S(=O)(=O)NCCC(=O)Nc1cccc(Cl)c1", "note": "[K906-3123]", "values": [{"measurement": "Loss of potency", "setting": "mycobacterial Lpd (mLpd)", "result": "even greater loss of potency"}]}
{"smiles": "Nc1ccc(S(N)(=O)=O)cc1", "note": "[sulfanilamide]", "values": [{"measurement": "Growth inhibitory effect on Mtb", "setting": "Mtb", "result": "little or no growth inhibitory effect"}]}
{"smiles": "CN(Cc1ccccc1)C(=O)CN(C)S(=O)(=O)c1cc(Br)cnc1N", "note": "[E144-0828]", "values": [{"measurement": "Loss of potency", "setting": "mycobacterial Lpd (mLpd)", "result": 100, "unit": "fold"}]}
{"smiles": "COc1ccc(CCN(C)CCCC(C#N)(c2ccc(OC)c(OC)c2)C(C)C)cc1OC", "note": "(centres unmarked) [verapamil, reference compound]", "values": [{"measurement": "Growth inhibitory effect on Mtb on its own", "setting": "[1]; 50 μM", "result": "no growth inhibitory effect"}]}
